SMILES strings stand for the structures.

Molecule `O=C(N[C@@H](CC1CCCC1)C(=O)NC1CCCN(S(=O)(=O)c2ccccn2)CC1=O)c1ccco1` (stereo partly drawn) [Example 63, Furan-2-carboxylic acid {(S)-2-cyclopentyl-1-[3-oxo-1-(pyridine-2-sulfonyl)-azepan-4-ylcarbamoyl]ethyl}-amide] displayed a melting point of 81 to 84 °C. The value for `CS(=O)(=O)N1CCCC(NC(=O)[C@H](CC2CCCC2)NC(=O)c2ccco2)C(=O)C1` (stereo partly drawn) [Example 66, Furan-2-carboxylic acid [(S)-2-cyclopentyl-1-(1-methanesulfonyl-3-oxo-azepan-4-ylcarbamoyl)-ethyl]-amide] was 158 to 161 °C; that for `O=C(N[C@@H](CC1CCCC1)C(=O)NC1CCCN(S(=O)(=O)c2ccccc2)CC1=O)c1ccco1` (stereo partly drawn) [Example 67, Furan-2-carboxylic acid [(S)-1-(1-benzenesulfonyl-3-oxo-azepan-4 ylcarbamoyl)-2-cyclopentyl-ethyl]-amide] was 88 to 90 °C.

For `O=C(N[C@@H](CC1CCCC1)C(=O)NC1CCCN(C(=O)OCc2ccccc2)CC1=O)c1ccco1` (stereo partly drawn) [Example 62, 4-{(S)-3-Cyclopentyl-2-[(1-furan-2-yl-methanoyl)-amino]-propanoylamino)-3-oxo-azepane-1-carboxylic acid benzyl ester], the melting point fell in the range of 66 to 68 °C.

`O=C(N[C@@H](CC1CCCC1)C(=O)NC1CCCN(C(=O)OCc2ccccc2)CC1=O)c1ccco1` (stereo partly drawn) [Example 61, 4-{(S)-3-Cyclopentyl-2-[(1-furan-2-yl-methanoyl)-amino]-propanoylamino}-3-oxo-azepane-1-carboxylic acid benzyl ester] had a melting point of 72 to 74 °C. Consider `O=C(N[C@@H](CC1CCCC1)C(=O)NC1CCCN(C(=O)c2ccco2)CC1=O)c1ccco1` (stereo partly drawn) [Example 69, Furan-2-carboxylic acid {(S)-2-cyclopentyl-1-[1-(1-furan-2-yl-methanoyl)-3-oxo-azepan-4-ylcarbamoyl]-ethyl}-amide], for which the melting point fell in the range of 88 to 89 °C.

Regarding `CS(=O)(=O)N1CCCC(NC(=O)[C@H](CC2CCCC2)NC(=O)c2ccco2)C(=O)C1` (stereo partly drawn) [Example 65, Furan-2-carboxylic acid [(S)-2-cyclopentyl-1-(1-methanesulfonyl-3-oxo-azepan-4ylcarbamoyl)-ethyl]-amide], the melting point lay within 167 to 170 °C. Then `O=C(N[C@@H](CC1CCCC1)C(=O)NC1CCCN(C(=O)c2ccccc2)CC1=O)c1ccco1` (stereo partly drawn) [Example 71, Furan-2-carboxylic acid {(S)-2-cyclopentyl-1-[3-oxo-1-(1-phenyl-methanoyl)-azepan-4-ylcarbamoyl]-ethyl}-amide], with 101 to 103 °C. `O=C(N[C@@H](CC1CCCC1)C(=O)NC1CCCN(S(=O)(=O)c2ccccc2)CC1=O)c1ccco1` (stereo partly drawn) [Example 68, Furan-2-carboxylic acid [(S)-1-(1-benzenesulfonyl-3-oxo-azepan-4-ylcarbamoyl)-2-cyclopentyl-ethyl]-amide] registered a melting point of 166 to 167 °C. `O=C(N[C@@H](CC1CCCC1)C(=O)NC1CCCN(C(=O)c2ccco2)CC1=O)c1ccco1` (stereo partly drawn) [Example 70, Furan-2-carboxylic acid {(S)-2-cyclopentyl-1-[1-(1-furan-2-yl-methanoyl)-3-oxo-azepan-4-ylcarbamoyl]-ethyl}-amide]: the melting point was in the range of 85 to 88 °C.

With `O=C(N[C@@H](CC1CCCC1)C(=O)NC1CCCN(C(=O)c2ccccc2)CC1=O)c1ccco1` (stereo partly drawn) [Example 72, Furan-2-carboxylic acid {(S)-2-cyclopentyl-1-[3-oxo-1-(1-phenyl-methanoyl)-azepan-4-ylcarbamoyl]-ethyl}-amide], the melting point is 97 to 100 °C. Regarding `O=C(N[C@@H](CC1CCCC1)C(=O)NC1CCCN(S(=O)(=O)c2ccccn2)CC1=O)c1ccco1` (stereo partly drawn) [Example 64, Furan-2-carboxylic acid {(S)-2-cyclopentyl-1-[3-oxo-1-(pyridine-2-sulfonyl)-azepan-4-ylcarbamoyl]ethyl}-amide], the melting point was in the range of 77 to 80 °C.

Source of the values: patent publication US20060052365A1, “Protease inhibitors” (priority 2002, published 2006).
